According to US9416162B2, “Peptides having reduced toxicity that stimulate cholesterol efflux” (The Regents of the University of California, priority 2013, dated 2016):
Non-standard residues stand in square brackets, D forms with d. No end group written: not given here. Cit = NC(=O)NCCC[C@H](N)C(=O)O

Columns and labels:
[1] = system: New Zealand White rabbits; experiment: High-dose IV bolus toxicity of ATI-5261 in rabbits (plasma ALT, AST, TG, unesterified cholesterol); type: in vivo, rabbit; details: male New Zealand White rabbits, single IV bolus 3, 30 or 300 mg/kg
Source text: Peptides or peptidomimetics of the invention can be evaluated for toxicity using known assays. Examples of such assays are illustrated in the Examples section. Toxicity is typically assayed in a rat, rabbit, mouse, monkey or dog model. […] Safety chemistry panels including plasma alanine aminotransferase (ALT), aspartate amino transferase (AST), and creatine kinase (CK) can then be determined in the blood. The presence of elevated levels of these enzymes in the blood compared to control normal values is indicative of toxicity. A peptide of the invention is typically considered to be non-toxic or to have little toxicity, when the results using the highest dose, 300 mg/kg in this illustrative assay, are equivalent (fall within the standard deviation) of the values measured for the control animals that received vehicle alone, or are no more than 2 or 3 times background obtained with vehicle alone. […]
Cytotoxicity of an HDL mimetic peptide ATI-5261 at high doses was evaluated in rats and rabbits (FIG. 1). […]
For the experiments in FIG. 2, male chow-fed Wistar rats (Panels A and B) were administered ATI-5261 at doses of 3, 30, and 300 mg/kg as described in FIG. 1. Plasma triglyceride (TG, Panel A) and unesterified cholesterol (Panel B) concentrations were determined enzymatically at the times indicated. […]

C57Bl/6 mice = experiment: Safety and TG elevating effects after IP injection in C57Bl/6 mice (plasma CPK, ALT, AST, lipids); type: in vivo
Experimental: The high-dose cytotoxic response of ATI-5261 observed in rat, rabbit and cynomolgus monkey is additionally recapitulated in mice (FIG. 4). Male chow-fed C57bl/6 mice were injected intraperitonelly (IP) with 30 or 300 mg/kg of lipid-fee ATI-5261. Blood was collected via the retro-orbital plexus 4 h after peptide injection and plasma subsequently obtained for measurement of CPK (Panel A) and ALT and AST activities (Panel B, ALT left bars; AST, right bars). Values are means±SD, n=4 mice per group.
This example illustrates that aromatic phenylalanine residues associated with the non-polar surface of ATI-5261 contributed to the majority of the peptide toxicity (FIG. 5). […] Blood was collected via retro-orbital plexus 4 h after injection for isolation of plasma. Levels of plasma CPK (Panel A), ALT (panel B) and AST (Panel C) were determined as described in FIG. 1. Values are means±SD, n=4 mice per group.
All values (mg/dl) are means±SD, n=4, determined at 4 and 6 h post treatment with peptide.

apoE−/− mice = experiment: Atherosclerosis in apoE−/− mice on high-fat western diet, whole aorta Oil-Red O staining; type: in vivo, mouse
Experimental: Male apoE^−/− mice at 8 weeks of age were fed a high-fat western diet for 14 weeks. Mice were subsequently randomized to either a control group to receive IP injection of vehicle alone or lipid-free peptide (30 mg/kg) at 48 hour intervals for 6 weeks. […] The extent of whole aorta covered with fatty lesions is shown, determined by Oil-Red O staining. Values are means±SD, n=10 mice per group.
CS6253, another synthesis batch of T5237-4, was administered IP at 10 mg/kg for 10 weeks showing again reduction of substantial atherosclerosis in apoE^−/− mice (FIG. 36). Male apoE^−/− mice at 8 weeks of age were fed a high-fat western diet for 14 weeks. Mice were subsequently randomized to either a control group to receive IP injection of vehicle alone or lipid-free CS6253 (10 mg/kg) at 48 hour intervals for 10 weeks while the mice remained on high-fat western diet. The extent of whole aorta covered with fatty lesions is shown, determined by Oil-Red O staining. Values are means±SD, n=10 mice per group.
CS6253 administered SC also reduce substantial atherosclerosis in apoE KO mice. Male apoE−/− mice at 8 weeks of age were fed a high-fat western diet for 14 weeks (FIG. 37). One group was terminated before treatment start as baseline control. Mice were subsequently randomized to one of 3 arms to receive subcutaneous (SC) injection alternate days for 6 weeks; vehicle alone, CS6253 30 mg/kg or CS6253 60 mg/kg. During the first 4 treatment weeks the mice remained on high-fat western diet while during the last two weeks of treatment they were switched to chow diet. The extent of whole aorta covered with fatty lesions is shown, determined by Oil-Red O staining. Values are means±SD, n=10 mice per group.

hamsters = experiment: Lipoprotein profile in hamsters after sc injection (ion mobility, 2D gel); type: in vivo, hamster
Experimental: This example employed peptide T5237-4 EVCit[…]it[…] (SEQ ID NO:2) (Cit=citrulline). […] Following removal of albumin by centrifugations plasma was injected and lipoproteins separated with gas-phase differential electrophoretic macromolecular mobility-based method (ion mobility, or IM) (Caulfield et al. Clin Chem 2008 54:8 1307-16). […] The panel in the upper right hand corner is derived from a 2D gel separation (size and charge separation).

[2] = hamsters, 10, 30 and 100 mg/kg sc, plasma 4 h, dose-response

Substance | cytotoxic response (plasma ALT and AST) [1] | plasma triglycerides and cholesterol [1] | plasma TG, total and unesterified (free) cholesterol (FC) (C57Bl/6 mice; C57Bl/6 mice, 300 mg/kg, 4 and 6 h post treatment) | cytotoxic/toxic response (plasma CPK, ALT, AST) (C57Bl/6 mice; male chow-fed C57Bl/6 mice, IP 300 mg/kg, plasma 4 h after injection) | extent of whole aorta covered with fatty lesions (apoE−/− mice; IP 10 mg/kg at 48 hour intervals for 10 weeks) | extent of whole aorta covered with fatty lesions (apoE−/− mice; IP 30 mg/kg at 48 hour intervals for 6 weeks) | extent of whole aorta covered with fatty lesions (apoE−/− mice; SC 30 mg/kg or 60 mg/kg alternate days for 6 weeks) | preβ-HDL (2D gel, apoA-I antibody) (hamsters; hamsters, 100 mg/kg sc, 1 h, 2 h, and 4 h) | LDL (hamsters; [2]) | small HDL (hamsters; [2])
ATI-5261: HDL mimetic peptide, parent peptide; triglyceride elevating and muscle toxic peptide used as positive control (EVRSKLEEWFAAFREFAEEFLARLKS) [reference compound] | induced a cytotoxic response | increased plasma triglycerides and cholesterol | marked increase | High levels of cytotoxic markers |  |  |  |  |  | 
EVCitSKLEEWLAALCitELAEELLARLKS (SEQ ID NO:2) (EV[Cit]SKLEEWLAAL[Cit]ELAEELLARLKS) [CS6253, citrulline form of LeuATI-5261, R3,14→Citrulline, 26-mer] |  |  |  |  | reduced atherosclerosis | reduced atherosclerosis | reduced atherosclerosis | preβ-HDL increase | LDL lowering | small HDL increase
